Ten molecules from article PMC7664637, “In Vitro and In Silico Evaluation of Anticancer Activity of New Indole-Based 1,3,4-Oxadiazoles as EGFR and COX-2 Inhibitors” (Molecules, 2020) can be followed below.

By IC50 is commonly meant the concentration that gives 50% inhibition. Usually melting point stands for the temperature of the solid-liquid transition.

Series [1] deals with A549 human lung adenocarcinoma cell line. The series can be described thus: MTT cytotoxicity assay, A549. The settings on record: A549, 48 h, read-out: IC50 A549 Cell Line.
Description: (§2) At the end of this period, supernatants were removed, and 100 μL DMSO was added to each well to solubilize the formazan crystals. The absorbance of the solution was determined on an Infinite M1000 plate reader (Tecan, Mannedorf, Switzerland) at a wavelength of 550 nm with background subtraction at 630 nm.
Series [2] deals with peripheral blood mononuclear cells (PBMCs). The series can be described thus: MTT cytotoxicity assay, PBMCs (tumor selectivity). The settings on record: Homo sapiens, PBMC, 48 h, read-out: IC50 PBMCs.
Description: as §2
The subject of series [3] is Jurkat human leukemic T-cells. The series can be described thus: MTT cytotoxicity assay, Jurkat cells (tumor selectivity). The settings on record: 48 h, read-out: IC50 Jurkat Cells.
Description: as §2
Series [4] deals with A375 human melanoma cell line. The series can be described thus: MTT cytotoxicity assay, A375. The note with it: A-375, 48 h, read-out: IC50 A375 Cell Line.
Description: as §2
Series [5] has as its system HCT116 human colorectal carcinoma cell line. The series can be described thus: MTT cytotoxicity assay, HCT116. The note with it: HCT-116, 48 h, read-out: IC50 HCT-116 Cell Line.
Description: as §2
In a further series the target is T1, HER4 (Homo sapiens, UniProt Q15303).
T1 construct: purchased Promega Corporation
T1 sequence (Q15303 26-1308): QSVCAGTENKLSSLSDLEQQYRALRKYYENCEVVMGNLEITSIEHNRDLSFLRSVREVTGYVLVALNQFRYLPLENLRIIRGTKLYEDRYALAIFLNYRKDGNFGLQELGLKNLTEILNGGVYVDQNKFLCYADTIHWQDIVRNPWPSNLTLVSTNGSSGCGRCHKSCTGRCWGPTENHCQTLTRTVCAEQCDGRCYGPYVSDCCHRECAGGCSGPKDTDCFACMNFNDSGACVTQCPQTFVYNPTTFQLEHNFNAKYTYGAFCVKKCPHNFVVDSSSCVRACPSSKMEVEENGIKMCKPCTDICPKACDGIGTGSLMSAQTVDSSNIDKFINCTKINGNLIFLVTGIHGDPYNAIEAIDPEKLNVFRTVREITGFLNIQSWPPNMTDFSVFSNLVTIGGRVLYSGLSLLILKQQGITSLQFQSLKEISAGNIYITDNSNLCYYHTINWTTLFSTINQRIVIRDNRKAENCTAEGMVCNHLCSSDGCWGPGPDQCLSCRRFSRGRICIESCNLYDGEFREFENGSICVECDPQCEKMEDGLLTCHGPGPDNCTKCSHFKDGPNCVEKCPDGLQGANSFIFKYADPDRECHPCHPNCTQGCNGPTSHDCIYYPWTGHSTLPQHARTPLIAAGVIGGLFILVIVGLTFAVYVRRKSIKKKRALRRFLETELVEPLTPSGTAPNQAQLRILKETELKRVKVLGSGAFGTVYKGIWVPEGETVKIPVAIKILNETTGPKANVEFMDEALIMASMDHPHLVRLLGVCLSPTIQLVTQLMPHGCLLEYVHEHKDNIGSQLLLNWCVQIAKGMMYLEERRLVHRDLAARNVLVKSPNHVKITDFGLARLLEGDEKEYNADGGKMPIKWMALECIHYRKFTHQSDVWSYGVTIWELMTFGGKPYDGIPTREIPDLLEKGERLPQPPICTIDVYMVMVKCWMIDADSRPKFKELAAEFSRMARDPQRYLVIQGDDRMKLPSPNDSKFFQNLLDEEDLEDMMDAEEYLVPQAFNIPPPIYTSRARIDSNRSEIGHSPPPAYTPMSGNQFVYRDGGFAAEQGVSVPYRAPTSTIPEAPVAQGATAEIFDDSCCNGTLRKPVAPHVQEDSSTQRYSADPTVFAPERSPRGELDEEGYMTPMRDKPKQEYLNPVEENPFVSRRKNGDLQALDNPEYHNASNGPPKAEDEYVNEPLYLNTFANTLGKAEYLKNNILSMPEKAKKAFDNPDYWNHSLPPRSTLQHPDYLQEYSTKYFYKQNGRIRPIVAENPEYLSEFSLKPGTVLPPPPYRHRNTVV
The series can be described thus: Kinase profiling assay (ADP-Glo), HER4. The note with it: 1 h, room temperature. The series is classed as biochemical. The protocol:
(§1) The kinase profiling assay protocol was applied according to the manufacturer’s instructions (Promega Corporation, Madison, WI, USA) with modification. […] Then, the reaction of the kinase was performed using 2 µL of compound solution at varying concentrations (0.1–100 µM), 4 µL of kinase working stock, and 4 µL of ATP/substrate working stock in the 384-well plate. After 1 h of incubation at room temperature, the activity of kinase was detected using ADP-Glo kinase assay (Promega Corporation, Madison, WI, USA), and kinase inhibitory activity of compounds in dose–response mode was measured by an Infinite M1000 luminescence plate reader (Tecan, Groding, Austria).
In general terms: In ADP-Glo the light output rises with the ADP produced.

The target of another series is T2, PDGFRα (Homo sapiens, UniProt P16234).
T2 construct: purchased Promega Corporation
The series can be described thus: Kinase profiling assay (ADP-Glo), PDGFRα. The settings on record: 1 h, room temperature. The series is classed as biochemical. How it is done: as §1

The next series deals with T3, PDGFRβ (Homo sapiens, UniProt P09619).
T3 construct: purchased Promega Corporation
Description: Kinase profiling assay (ADP-Glo), PDGFRβ. The series is classed as biochemical. The settings on record: 1 h, room temperature. The protocol:
as §1

A further series deals with T4, KDR (Homo sapiens, UniProt P35968).
T4 construct: purchased Promega Corporation
T4 sequence (P35968 20-1356): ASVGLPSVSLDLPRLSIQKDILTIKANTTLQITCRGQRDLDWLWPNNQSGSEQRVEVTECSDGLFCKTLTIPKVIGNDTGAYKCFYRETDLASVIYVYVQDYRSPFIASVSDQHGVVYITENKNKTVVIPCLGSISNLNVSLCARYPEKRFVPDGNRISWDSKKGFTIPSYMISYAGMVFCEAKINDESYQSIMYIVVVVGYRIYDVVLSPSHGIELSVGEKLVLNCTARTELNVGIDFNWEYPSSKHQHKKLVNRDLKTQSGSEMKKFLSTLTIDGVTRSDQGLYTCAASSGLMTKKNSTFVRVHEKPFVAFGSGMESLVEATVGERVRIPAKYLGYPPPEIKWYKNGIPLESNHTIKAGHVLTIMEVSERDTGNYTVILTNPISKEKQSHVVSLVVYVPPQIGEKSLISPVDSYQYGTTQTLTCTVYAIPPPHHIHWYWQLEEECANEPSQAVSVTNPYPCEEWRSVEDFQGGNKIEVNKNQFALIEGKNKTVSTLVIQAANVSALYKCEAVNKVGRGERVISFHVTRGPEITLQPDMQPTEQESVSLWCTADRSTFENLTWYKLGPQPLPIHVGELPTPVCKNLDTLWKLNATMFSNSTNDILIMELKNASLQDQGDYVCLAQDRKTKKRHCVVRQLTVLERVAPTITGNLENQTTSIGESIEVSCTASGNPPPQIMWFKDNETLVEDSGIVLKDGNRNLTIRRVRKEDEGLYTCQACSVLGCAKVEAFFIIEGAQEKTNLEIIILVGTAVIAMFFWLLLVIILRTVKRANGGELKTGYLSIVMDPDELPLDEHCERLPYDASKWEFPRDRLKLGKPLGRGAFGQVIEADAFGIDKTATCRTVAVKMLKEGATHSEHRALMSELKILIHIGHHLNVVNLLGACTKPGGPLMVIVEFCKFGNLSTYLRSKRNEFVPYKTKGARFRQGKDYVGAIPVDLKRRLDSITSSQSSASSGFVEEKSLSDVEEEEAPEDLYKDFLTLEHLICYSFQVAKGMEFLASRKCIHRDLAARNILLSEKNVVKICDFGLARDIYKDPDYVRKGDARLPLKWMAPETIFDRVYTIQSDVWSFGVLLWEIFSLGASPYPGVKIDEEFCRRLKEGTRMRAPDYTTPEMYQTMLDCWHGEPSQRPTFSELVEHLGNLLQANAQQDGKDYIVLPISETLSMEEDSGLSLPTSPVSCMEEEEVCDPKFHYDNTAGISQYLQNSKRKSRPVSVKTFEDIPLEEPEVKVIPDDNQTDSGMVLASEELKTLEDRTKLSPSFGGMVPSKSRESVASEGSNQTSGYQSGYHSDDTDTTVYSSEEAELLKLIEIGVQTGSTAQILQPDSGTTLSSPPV
Description: Kinase profiling assay (ADP-Glo), KDR. The format is biochemical. The settings on record: 1 h, room temperature. How it is done:
as §1

The next series addresses T5, InsR (Homo sapiens, UniProt P06213).
T5 construct: purchased Promega Corporation
Description: Kinase profiling assay (ADP-Glo), InsR. The series is classed as biochemical. The note with it: 1 h, room temperature. How it is done:
as §1

A further series deals with T6, EGFR (Homo sapiens, UniProt P00533).
T6 construct: purchased Promega Corporation
T6 sequence (P00533 25-1210): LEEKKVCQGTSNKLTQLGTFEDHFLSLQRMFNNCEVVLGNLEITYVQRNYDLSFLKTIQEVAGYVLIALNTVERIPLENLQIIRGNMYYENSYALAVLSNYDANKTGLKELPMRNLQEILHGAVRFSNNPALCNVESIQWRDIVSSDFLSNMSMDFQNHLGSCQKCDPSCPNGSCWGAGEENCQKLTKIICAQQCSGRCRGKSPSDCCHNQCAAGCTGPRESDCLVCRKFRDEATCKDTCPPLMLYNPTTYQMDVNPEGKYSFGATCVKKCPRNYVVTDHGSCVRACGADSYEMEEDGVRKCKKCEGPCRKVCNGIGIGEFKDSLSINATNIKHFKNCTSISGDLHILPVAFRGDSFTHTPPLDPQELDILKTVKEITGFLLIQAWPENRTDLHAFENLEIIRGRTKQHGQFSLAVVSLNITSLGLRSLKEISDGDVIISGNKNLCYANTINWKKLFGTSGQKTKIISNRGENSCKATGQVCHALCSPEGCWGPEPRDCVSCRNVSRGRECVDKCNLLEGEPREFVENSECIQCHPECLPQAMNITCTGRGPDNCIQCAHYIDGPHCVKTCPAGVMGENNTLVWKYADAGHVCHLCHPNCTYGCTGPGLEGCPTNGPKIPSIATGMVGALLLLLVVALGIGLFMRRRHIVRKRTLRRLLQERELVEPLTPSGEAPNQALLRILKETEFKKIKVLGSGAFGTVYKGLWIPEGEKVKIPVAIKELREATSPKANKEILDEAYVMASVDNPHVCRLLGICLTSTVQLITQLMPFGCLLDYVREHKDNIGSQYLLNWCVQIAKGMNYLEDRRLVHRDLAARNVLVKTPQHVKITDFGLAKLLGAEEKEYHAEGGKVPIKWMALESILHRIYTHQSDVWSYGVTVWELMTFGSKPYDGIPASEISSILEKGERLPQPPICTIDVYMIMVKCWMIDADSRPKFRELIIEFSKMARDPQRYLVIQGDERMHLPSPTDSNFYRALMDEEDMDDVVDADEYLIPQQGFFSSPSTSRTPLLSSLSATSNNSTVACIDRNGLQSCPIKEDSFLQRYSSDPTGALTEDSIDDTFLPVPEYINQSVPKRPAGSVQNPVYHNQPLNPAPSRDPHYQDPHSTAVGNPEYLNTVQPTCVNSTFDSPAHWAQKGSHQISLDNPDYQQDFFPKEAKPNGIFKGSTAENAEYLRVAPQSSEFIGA
The series can be described thus: Kinase profiling assay (ADP-Glo), EGFR. The settings on record: 1 h, room temperature. The format is biochemical. How it is done: as §1

A further series concerns HCT116 cells. The series can be described thus: Detection of cell death, Hoechst 33342/annexin V/ethidium homodimer III staining. The series is classed as cell-based, human. The note with it: 10 μM, 12 h. The protocol:
The cells were then briefly washed twice with 1× binding buffer, a staining solution containing 50 μL of 1× binding buffer, 5 μL of FITC-Annexin V solution, 5 μL of ethidium homodimer III solution, and 5 μL of Hoechst 33342 solution and incubated for 15 min at room temperature in the dark. Then, cells were washed with 1× binding buffer and analyzed by a Biorevo Fluorescence BZ-9000 all-in-one fluorescence microscope (Keyence, Osaka, Japan). Numbers of healthy cells (Hoechst 33342), apoptotic cells (Annexin V), late apoptotic or necrotic cells (Annexin V and Ethidium homodimer III), and necrotic cells (Ethidium homodimer III) were counted, as previously described.
(B) A total of approximately 100 stained cells were selected randomly in each experiment of (A) and were classified into 4 types: “alive” (blue), “apoptosis” (green), “necrosis or late apoptosis” (both green and red), and “necrosis” (red). […] Data from three independent experiments are shown as means ± standard deviations and p values were determined using Student’s test.

In the next series the target is T7, HER2 (Homo sapiens, UniProt P04626).
T7 construct: purchased Promega Corporation
Description: Kinase profiling assay (ADP-Glo), HER2. The format is biochemical. The note with it: 1 h, room temperature. How it is done:
as §1

For the next series, the target named is T8, IGF1R (Homo sapiens, UniProt P08069).
T8 construct: purchased Promega Corporation
T8 sequence (P08069 31-1367): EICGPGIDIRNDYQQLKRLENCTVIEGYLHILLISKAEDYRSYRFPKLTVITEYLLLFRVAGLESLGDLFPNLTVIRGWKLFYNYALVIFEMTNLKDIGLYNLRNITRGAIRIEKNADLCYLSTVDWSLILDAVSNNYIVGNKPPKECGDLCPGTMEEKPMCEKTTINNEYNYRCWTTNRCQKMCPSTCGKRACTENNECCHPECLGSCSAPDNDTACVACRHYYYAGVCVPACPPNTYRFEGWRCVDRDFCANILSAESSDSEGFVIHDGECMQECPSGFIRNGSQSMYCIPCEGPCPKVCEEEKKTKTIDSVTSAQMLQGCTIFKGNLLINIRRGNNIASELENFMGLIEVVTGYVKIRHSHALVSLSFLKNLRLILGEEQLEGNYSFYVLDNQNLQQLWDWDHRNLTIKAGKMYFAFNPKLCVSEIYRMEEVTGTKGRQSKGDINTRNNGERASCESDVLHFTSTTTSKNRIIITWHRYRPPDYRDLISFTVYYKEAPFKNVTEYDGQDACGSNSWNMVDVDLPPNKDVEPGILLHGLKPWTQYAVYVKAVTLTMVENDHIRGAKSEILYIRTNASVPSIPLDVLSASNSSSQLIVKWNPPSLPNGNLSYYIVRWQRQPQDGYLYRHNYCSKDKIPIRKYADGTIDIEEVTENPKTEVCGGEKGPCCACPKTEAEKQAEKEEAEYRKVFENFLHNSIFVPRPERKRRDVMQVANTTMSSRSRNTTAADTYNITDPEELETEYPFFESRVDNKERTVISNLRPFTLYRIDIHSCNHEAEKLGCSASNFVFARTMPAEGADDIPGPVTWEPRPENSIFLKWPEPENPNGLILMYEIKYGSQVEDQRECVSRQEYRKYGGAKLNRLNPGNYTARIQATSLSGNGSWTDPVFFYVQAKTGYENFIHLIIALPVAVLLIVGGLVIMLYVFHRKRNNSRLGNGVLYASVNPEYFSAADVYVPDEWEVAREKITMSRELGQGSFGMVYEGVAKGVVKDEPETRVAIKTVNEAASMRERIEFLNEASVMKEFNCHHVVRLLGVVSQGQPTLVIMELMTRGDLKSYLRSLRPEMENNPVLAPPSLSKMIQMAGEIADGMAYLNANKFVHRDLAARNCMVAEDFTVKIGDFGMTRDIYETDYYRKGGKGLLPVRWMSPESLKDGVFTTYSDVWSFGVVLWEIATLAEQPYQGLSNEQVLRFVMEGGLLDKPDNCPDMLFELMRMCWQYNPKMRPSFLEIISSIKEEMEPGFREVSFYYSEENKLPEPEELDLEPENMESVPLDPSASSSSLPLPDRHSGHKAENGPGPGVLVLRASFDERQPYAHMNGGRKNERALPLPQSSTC
The series can be described thus: Kinase profiling assay (ADP-Glo), IGF1R. The settings on record: 1 h, room temperature. The format is biochemical. How it is done:
as §1

The target in another series is T9, COX-1 (Ovis aries, UniProt P05979).
T9 sequence (P05979 25-600): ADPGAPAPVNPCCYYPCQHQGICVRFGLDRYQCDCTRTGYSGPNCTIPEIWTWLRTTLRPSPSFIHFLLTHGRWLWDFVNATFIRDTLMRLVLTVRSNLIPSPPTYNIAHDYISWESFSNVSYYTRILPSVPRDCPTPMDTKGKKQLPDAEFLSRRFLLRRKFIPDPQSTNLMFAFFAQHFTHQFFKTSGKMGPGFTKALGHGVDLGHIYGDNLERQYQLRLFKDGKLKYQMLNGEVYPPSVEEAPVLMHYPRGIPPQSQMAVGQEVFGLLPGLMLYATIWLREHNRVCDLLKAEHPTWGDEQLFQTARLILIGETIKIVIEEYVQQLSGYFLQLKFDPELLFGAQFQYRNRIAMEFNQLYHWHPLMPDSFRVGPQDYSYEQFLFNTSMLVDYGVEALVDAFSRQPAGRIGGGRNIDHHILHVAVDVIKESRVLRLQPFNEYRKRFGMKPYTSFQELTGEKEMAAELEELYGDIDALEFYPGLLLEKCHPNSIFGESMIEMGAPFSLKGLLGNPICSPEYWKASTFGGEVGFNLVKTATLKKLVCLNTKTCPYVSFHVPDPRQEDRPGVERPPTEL
The series can be described thus: In vitro COX inhibition assay (COX (ovine/human) inhibitor screening kit), COX-1.

Description for COX-1: Briefly, COX reactions were performed. […] The prostaglandins were quantified by ELISA.

Take `O=C(CSc1nnc(Cc2c[nH]c3ccccc23)o1)Nc1nc2ccccc2s1` [Compound 2a, 2-[(5-((1H-Indol-3-yl)methyl)-1,3,4-oxadiazol-2-yl)thio]-N-(benzothiazol-2-yl)acetamide]: the IC50 in [1] is 40.4 ± 7.74 µM; in [2], over 300 µM; in series [3], 17.7 ± 3.59 µM; in series [4], 65.1 ± 10.1 µM; in series [5] it was 26.2 ± 1.75 µM.
With `O=C(CSc1nnc(Cc2c[nH]c3ccccc23)o1)Nc1nc2ccc(Cl)cc2s1` [Compound 2b, 2-[(5-((1H-Indol-3-yl)methyl)-1,3,4-oxadiazol-2-yl)thio]-N-(6-chlorobenzothiazol-2-yl)acetamide], the values for the IC50 in [1], in [4] and in [5] were 60.7 ± 9.48 µM, 37.6 ± 5.62 µM and over 100 µM, respectively.
In turn, `O=C(CSc1nnc(Cc2c[nH]c3ccccc23)o1)Nc1nc2ccc(Br)cc2s1` [Compound 2c, 2-[(5-((1H-Indol-3-yl)methyl)-1,3,4-oxadiazol-2-yl)thio]-N-(6-bromobenzothiazol-2-yl)acetamide] yielded a melting point of 240.6 to 241.5 °C. Also, the IC50 in [1] is 24.9 ± 1.96 µM. In series [4], the IC50 was 48.5 ± 5.78 µM. Besides, in series [5], the IC50 was over 100 µM.
Turning to `Cc1ccc2nc(NC(=O)CSc3nnc(Cc4c[nH]c5ccccc45)o3)sc2c1` [Compound 2d, 2-[(5-((1H-Indol-3-yl)methyl)-1,3,4-oxadiazol-2-yl)thio]-N-(6-methylbenzothiazol-2-yl)acetamide], the IC50 was 36.9 ± 5.43 µM in [1]; over 300 µM in series [2]; 21.1 ± 1.85 µM in [3]; 30.2 ± 3.12 µM in series [4]; 18.2 ± 1.19 µM in series [5].
With `CCOc1ccc2nc(NC(=O)CSc3nnc(Cc4c[nH]c5ccccc45)o3)sc2c1` [Compound 2e, 2-[(5-((1H-Indol-3-yl)methyl)-1,3,4-oxadiazol-2-yl)thio]-N-(6-ethoxybenzothiazol-2-yl)acetamide], the IC50 in [1] was 9.62 ± 1.14 µM; in series [2], over 300 µM; against HER4, 8.22 ± 1.64 µM; at PDGFRα, over 30 µM; against PDGFRβ, 6.16 ± 1.58 µM; in series [3], 6.45 ± 1.02 µM. The IC50 against KDR is over 30 µM; against InsR, 29.1 ± 4.66 µM; at EGFR, 2.8 ± 0.52 µM; at HER2 it was over 30 µM; in [5], 6.43 ± 0.72 µM; on IGF1R it was over 30 µM. The same molecule displayed an IC50 on COX-1 of 73.5 ± 2.12 µM. Also, the “apoptosis (apoptotic cells)” value in the series with HCT116 cells worked out at 28.35%. Also, the “late apoptotic or necrotic effects” value with HCT116 cells was 9.81%.
For the molecule `O=C(CSc1nnc(Cc2c[nH]c3ccccc23)o1)Nc1nc2ccc([N+](=O)[O-])cc2s1` [Compound 2f, 2-[(5-((1H-Indol-3-yl)methyl)-1,3,4-oxadiazol-2-yl)thio]-N-(6-nitrobenzothiazol-2-yl)acetamide], the IC50 in series [1], in series [4] and in series [5] was over 100 µM each time.
For `O=C(CSc1nnc(Cc2c[nH]c3ccccc23)o1)Nc1nccs1` [Compound 2g, 2-[(5-((1H-Indol-3-yl)methyl)-1,3,4-oxadiazol-2-yl)thio]-N-(thiazol-2-yl)acetamide], the melting point lay in the range of 177.4 to 178.2 °C. Further, the IC50 in [1] is over 100 µM. Besides, the half-maximal inhibitory concentration (IC50) in [4] was over 100 µM. Moreover, the IC50 in series [5] was over 100 µM.
Regarding `O=C(CSc1nnc(Cc2c[nH]c3ccccc23)o1)Nc1ncc([N+](=O)[O-])s1` [Compound 2h, 2-[(5-((1H-Indol-3-yl)methyl)-1,3,4-oxadiazol-2-yl)thio]-N-[5-nitrothiazol-2-yl]acetamide], the melting point lay in the range of 233.9 to 234.5 °C. Moreover, the IC50 in [1] is over 100 µM. In addition, the IC50 in [4] is over 100 µM. The IC50 in series [5] was over 100 µM.
With `CCOC(=O)Cc1csc(NC(=O)CSc2nnc(Cc3c[nH]c4ccccc34)o2)n1` [Compound 2i, 2-[(5-((1H-Indol-3-yl)methyl)-1,3,4-oxadiazol-2-yl)thio]-N-[4-(ethoxycarbonylmethyl)thiazol-2-yl]acetamide], the melting point was 158 to 158.6 °C. In addition, in series [1], the IC50 was 71.9 ± 10.3 µM. Further, the IC50 in series [4] came to 95.9 ± 12.4 µM. In addition, the IC50 in series [5] was over 100 µM.
Consider `C#Cc1cccc(Nc2ncnc3cc(OCCOC)c(OCCOC)cc23)c1` [Erlotinib, reference compound], for which the IC50 in series [1] amounted to 19.4 ± 2.38 µM; in series [2], 45.7 ± 8.88 µM; in series [3], 9.47 ± 2.15 µM; in [4], 23.8 ± 4.17 µM. In the series on HCT116 cells, the “apoptosis (apoptotic cells)” value is 7.42%. Further, the “late apoptotic or necrotic effects” value in the series with HCT116 cells came to 10.45%.
